# In patent US20080009418A1, “Selective Inhibitors” (Alchemia LTD., priority 2004, published 2008):
# Experiments:
# Human melanocortin (MC5) = target: T1, Human melanocortin (MC5) (Homo sapiens, UniProt P33032); assay: Radioligand binding, human melanocortin MC5 membranes, FlashPlate, [125I]-NDP-αMSH; conditions: compound at 10 μM, [125I]-NDP-αMSH
# T1 construct: purchased Perkin Elmer Biosignal
# How it was run: (§1)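 Cloned human receptor membranes were coated onto FlashPlate wells and incubated with radioligand and compound (added from a 0.5 mM DMSO daughter plate) for 1 hour at room temperature in the dark. Scintillation counting gave percent inhibition, with DMSO defining total and reference ligand defining non-specific binding.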
# Human μ-opioid (MOP) = target: T2, Human μ-opioid (MOP) (Homo sapiens, UniProt P35372); assay: Radioligand binding, human μ-opioid (MOP) membranes, FlashPlate, [3H]-Naloxone; conditions: compound at 10 μM, [3H]-Naloxone
# T2 construct: purchased Perkin Elmer Biosignal
# T2 sequence (P35372 whole entry): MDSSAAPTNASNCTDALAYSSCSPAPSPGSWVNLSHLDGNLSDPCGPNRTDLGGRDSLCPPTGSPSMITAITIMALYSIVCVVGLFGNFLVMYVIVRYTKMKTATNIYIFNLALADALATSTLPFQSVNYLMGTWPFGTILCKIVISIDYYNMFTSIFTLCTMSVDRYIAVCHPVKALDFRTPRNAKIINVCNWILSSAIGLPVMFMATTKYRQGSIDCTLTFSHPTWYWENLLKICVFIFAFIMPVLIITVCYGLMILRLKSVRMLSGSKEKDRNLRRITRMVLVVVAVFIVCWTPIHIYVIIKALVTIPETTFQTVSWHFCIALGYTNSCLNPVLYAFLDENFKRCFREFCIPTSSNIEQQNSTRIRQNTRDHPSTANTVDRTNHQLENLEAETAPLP
# How it was run: as §1
# Human Melanocortin (MC3) = target: T3, Human Melanocortin (MC3) (Homo sapiens, UniProt P41968); assay: Radioligand binding, human melanocortin MC3 membranes, FlashPlate, [125I]-NDP-αMSH; conditions: compound at 10 μM, [125I]-NDP-αMSH
# T3 construct: purchased Perkin Elmer Biosignal
# T3 sequence (P41968 whole entry): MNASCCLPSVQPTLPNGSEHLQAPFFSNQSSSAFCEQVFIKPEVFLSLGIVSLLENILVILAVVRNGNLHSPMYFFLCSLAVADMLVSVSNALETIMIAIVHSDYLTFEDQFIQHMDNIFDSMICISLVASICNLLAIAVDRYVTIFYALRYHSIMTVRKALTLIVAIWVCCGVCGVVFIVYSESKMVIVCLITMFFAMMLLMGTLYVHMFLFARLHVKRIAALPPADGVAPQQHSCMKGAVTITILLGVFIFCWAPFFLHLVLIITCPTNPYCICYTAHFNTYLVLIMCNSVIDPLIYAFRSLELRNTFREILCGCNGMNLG
# How it was run: as §1
# Human κ-Opioid (KOP) = target: T4, Human κ-Opioid (KOP) (Homo sapiens, UniProt P41145); assay: Radioligand binding, human κ-opioid (KOP) membranes, filtration, [3H]-Diprenorphine; conditions: compound at 10 μM, [3H]-Diprenorphine
# T4 construct: purchased Perkin Elmer Biosignal
# T4 sequence (P41145 whole entry): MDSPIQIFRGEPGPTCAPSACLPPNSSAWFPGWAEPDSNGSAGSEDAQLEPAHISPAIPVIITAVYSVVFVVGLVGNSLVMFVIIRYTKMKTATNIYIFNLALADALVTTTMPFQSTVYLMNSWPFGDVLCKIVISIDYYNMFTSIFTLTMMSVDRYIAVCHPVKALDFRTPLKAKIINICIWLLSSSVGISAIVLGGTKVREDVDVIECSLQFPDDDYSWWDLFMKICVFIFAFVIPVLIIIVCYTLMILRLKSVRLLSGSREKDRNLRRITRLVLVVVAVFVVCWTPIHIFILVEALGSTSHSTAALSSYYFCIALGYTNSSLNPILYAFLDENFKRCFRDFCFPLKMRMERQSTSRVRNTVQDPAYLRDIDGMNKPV
# How it was run: (§2)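 Membranes from cloned human receptors were incubated with compound and radioligand for 1 hour at room temperature. Bound ligand was collected on 0.3% PEI-soaked filters, washed with cold 50 mM Tris-HCl pH 7.4, and counted by scintillation. Percent inhibition was computed against DMSO totals and reference-ligand nonspecific wells.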
# [1] = target: T5, Human neuropeptide Y (NPY-Y1) (Homo sapiens, UniProt P25929); assay: Radioligand binding, human neuropeptide Y NPY-Y1 membranes, FlashPlate, [125I]-PYY; conditions: compound at 10 μM, [125I]-PYY
# T5 construct: purchased Perkin Elmer Biosignal
# T5 sequence (P25929 1-384): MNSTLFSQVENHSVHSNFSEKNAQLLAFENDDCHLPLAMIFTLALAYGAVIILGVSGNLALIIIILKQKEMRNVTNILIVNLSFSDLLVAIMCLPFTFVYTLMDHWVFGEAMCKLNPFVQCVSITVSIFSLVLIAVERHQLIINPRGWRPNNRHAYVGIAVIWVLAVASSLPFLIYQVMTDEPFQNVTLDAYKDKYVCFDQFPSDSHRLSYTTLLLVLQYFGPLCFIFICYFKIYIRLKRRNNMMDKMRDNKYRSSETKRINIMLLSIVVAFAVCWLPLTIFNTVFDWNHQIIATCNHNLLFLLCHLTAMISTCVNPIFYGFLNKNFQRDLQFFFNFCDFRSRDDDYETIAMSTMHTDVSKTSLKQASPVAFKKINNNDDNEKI
# How it was run: as §1
# Mouse urotensin (mUR2) = target: T6, Mouse urotensin (mUR2) (Mus musculus, UniProt Q8VIH9); assay: Radioligand binding, mouse urotensin mUR2 membranes, FlashPlate, [125I]-Urotensin II; conditions: compound at 10 μM, [125I]-Urotensin II
# T6 construct: purchased Perkin Elmer Biosignal
# T6 sequence (Q8VIH9 1-385): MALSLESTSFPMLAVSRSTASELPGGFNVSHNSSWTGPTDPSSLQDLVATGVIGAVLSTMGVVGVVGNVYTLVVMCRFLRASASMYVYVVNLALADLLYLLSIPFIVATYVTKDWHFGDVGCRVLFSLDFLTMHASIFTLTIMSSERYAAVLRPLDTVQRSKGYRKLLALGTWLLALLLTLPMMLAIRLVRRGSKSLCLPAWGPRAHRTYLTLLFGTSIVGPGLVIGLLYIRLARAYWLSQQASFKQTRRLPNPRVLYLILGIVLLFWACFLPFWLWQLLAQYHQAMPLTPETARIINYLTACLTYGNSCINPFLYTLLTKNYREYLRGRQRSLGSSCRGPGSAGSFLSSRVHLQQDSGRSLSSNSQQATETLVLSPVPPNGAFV
# How it was run: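 Cloned mouse urotensin (mUR2) receptor membranes from Perkin Elmer Biosignal were immobilized in FlashPlate microplates using a proprietary coating. Each well got 19.5 μl buffer, then 0.5 μl of DMSO, reference ligand, or compound. Adding 5 μl of [125I]-Urotensin II, diluted to 5× final concentration in binding buffer, started binding. Plates were sealed with TopSeal-A and incubated 1 hour at room temperature in the dark. Wells were counted for 30 seconds each on a TopCount after a 60-second delay, and percentage inhibition was calculated.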
# [2] = target: T7, Human melanin-concentrating hormone (MCH1) (Homo sapiens, UniProt Q99705); assay: Radioligand binding, human melanin-concentrating hormone MCH1 membranes, FlashPlate, [125I]-S36057; conditions: compound at 10 μM
# T7 construct: purchased Perkin Elmer Biosignal
# T7 sequence (Q99705 whole entry): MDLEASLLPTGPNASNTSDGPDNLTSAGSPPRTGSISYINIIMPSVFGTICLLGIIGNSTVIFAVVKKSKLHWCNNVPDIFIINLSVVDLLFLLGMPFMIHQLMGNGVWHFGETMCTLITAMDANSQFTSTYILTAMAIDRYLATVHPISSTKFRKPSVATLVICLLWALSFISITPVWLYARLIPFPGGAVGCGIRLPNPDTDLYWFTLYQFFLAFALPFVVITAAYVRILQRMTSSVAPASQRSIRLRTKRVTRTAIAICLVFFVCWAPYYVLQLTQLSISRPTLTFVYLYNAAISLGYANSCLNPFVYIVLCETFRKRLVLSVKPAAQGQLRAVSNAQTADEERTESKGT
# How it was run: as §1
# Human Melanocortin (MC4) = target: T8, Human Melanocortin (MC4) (Homo sapiens, UniProt P32245); assay: Radioligand binding, human melanocortin MC4 membranes, FlashPlate, [125I]-NDP-αMSH; conditions: compound at 10 μM, [125I]-NDP-αMSH
# T8 construct: purchased Perkin Elmer Biosignal
# T8 sequence (P32245 whole entry): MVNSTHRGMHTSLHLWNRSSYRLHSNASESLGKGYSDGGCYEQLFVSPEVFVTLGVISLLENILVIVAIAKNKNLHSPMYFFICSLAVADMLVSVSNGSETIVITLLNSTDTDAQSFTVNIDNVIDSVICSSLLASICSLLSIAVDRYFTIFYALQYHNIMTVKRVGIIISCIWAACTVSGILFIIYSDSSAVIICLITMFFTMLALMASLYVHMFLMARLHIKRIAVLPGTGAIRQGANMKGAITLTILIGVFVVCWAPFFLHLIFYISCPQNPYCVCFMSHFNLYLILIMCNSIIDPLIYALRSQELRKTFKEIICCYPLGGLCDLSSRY
# How it was run: as §1
# Human neurokinin (NK1) = target: T9, Human neurokinin (NK1) (Homo sapiens, UniProt P25103); assay: Radioligand binding, human neurokinin NK1 membranes, filtration, [125I]-Substance P; conditions: compound at 10 μM, [125I]-Substance P
# T9 construct: purchased Perkin Elmer Biosignal
# T9 sequence (P25103 whole entry): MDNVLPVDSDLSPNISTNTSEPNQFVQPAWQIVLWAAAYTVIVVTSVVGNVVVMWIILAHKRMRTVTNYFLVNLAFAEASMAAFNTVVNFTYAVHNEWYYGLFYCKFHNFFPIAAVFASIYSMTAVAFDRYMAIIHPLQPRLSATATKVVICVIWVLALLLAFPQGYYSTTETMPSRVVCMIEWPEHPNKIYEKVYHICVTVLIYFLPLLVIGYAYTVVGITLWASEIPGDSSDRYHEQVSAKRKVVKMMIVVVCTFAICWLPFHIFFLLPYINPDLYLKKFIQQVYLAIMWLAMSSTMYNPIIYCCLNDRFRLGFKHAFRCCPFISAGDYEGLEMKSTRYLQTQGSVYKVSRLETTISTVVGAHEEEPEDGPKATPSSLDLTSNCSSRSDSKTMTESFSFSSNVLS
# How it was run: as §2
# Human opioid (ORL1) = target: T10, Human opioid (ORL1) (Homo sapiens, UniProt P41146); assay: Radioligand binding, human opioid ORL1 membranes, FlashPlate, [125I]-Nociceptin; conditions: compound at 10 μM, [125I]-Nociceptin
# T10 construct: purchased Perkin Elmer Biosignal
# T10 sequence (P41146 whole entry): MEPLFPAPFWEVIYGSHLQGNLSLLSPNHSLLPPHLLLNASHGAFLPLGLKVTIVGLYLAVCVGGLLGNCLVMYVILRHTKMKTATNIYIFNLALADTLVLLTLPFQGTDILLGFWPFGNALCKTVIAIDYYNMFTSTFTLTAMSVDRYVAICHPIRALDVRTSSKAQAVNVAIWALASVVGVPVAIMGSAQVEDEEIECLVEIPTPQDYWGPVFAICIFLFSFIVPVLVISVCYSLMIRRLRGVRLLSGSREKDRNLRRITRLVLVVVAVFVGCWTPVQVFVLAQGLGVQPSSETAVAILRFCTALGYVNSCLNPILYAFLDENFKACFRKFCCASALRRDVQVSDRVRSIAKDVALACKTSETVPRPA
# How it was run: as §1
# Human δ-opioid (DOP) = target: T11, Human δ-opioid (DOP) (Homo sapiens, UniProt P41143); assay: Radioligand binding, human δ-opioid (DOP) membranes, FlashPlate, [3H]-Bremazocine; conditions: compound at 10 μM, [3H]-Bremazocine
# T11 construct: purchased Perkin Elmer Biosignal
# T11 sequence (P41143 whole entry): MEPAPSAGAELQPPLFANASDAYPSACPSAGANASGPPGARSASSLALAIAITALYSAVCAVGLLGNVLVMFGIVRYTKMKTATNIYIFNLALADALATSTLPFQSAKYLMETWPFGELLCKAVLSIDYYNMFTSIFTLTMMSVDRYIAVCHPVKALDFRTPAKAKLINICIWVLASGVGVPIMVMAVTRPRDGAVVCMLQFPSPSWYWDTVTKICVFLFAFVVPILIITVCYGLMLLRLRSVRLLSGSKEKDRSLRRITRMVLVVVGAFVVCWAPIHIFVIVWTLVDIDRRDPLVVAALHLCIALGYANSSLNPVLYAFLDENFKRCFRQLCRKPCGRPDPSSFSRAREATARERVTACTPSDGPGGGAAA
# How it was run: as §1
# T1 sequence (P33032 whole entry): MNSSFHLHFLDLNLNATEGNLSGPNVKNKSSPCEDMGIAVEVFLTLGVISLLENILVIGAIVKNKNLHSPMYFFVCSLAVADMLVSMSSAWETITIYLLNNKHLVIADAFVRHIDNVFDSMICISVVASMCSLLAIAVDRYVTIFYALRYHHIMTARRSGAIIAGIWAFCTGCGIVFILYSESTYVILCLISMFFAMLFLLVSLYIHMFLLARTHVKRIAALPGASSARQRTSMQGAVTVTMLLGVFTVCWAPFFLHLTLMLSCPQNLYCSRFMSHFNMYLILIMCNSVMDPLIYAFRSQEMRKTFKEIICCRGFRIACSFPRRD
compound,measurement,setting,value
"NCCCC(=O)NC1C(OCc2ccc3ccccc3c2)OC(COCc2ccc3ccccc3c2)C(O)C1OCc1ccccc1 (single isomer, unassigned) [compound 466]",A5: inhibition of radioligand binding,Human melanocortin (MC5); human MC5 membranes,+ (“+” indicates greater than 50% inhibition at 10 μM)
same,A7: inhibition of radioligand binding,Human μ-opioid (MOP); human MOP membranes,− (“−” indicates less than 50% inhibition at 10 μM)
same,A3: inhibition of radioligand binding,"Human Melanocortin (MC3); human MC3 membranes, 10 µM",− (“−” indicates less than 50% inhibition at 10 μM)
same,A2: inhibition of radioligand binding,Human κ-Opioid (KOP); human KOP membranes,− (“−” indicates less than 50% inhibition at 10 μM)
same,A9: inhibition of radioligand binding,[1]; human NPY-Y1 membranes,− (“−” indicates less than 50% inhibition at 10 μM)
same,A11: inhibition of radioligand binding,Mouse urotensin (mUR2); mouse mUR2 membranes,− (“−” indicates less than 50% inhibition at 10 μM)
same,A6: inhibition of radioligand binding,"[2]; [125I]-S36057, human MCH1 membranes, 10 µM",+ (“+” indicates greater than 50% inhibition at 10 μM)
same,A4: inhibition of radioligand binding,"Human Melanocortin (MC4); human MC4 membranes, 10 µM",+ (“+” indicates greater than 50% inhibition at 10 μM)
same,A8: inhibition of radioligand binding,Human neurokinin (NK1); human NK1 membranes,+ (“+” indicates greater than 50% inhibition at 10 μM)
same,A10: inhibition of radioligand binding,"Human opioid (ORL1); human ORL1 membranes, 10 µM",+ (“+” indicates greater than 50% inhibition at 10 μM)
same,A1: inhibition of radioligand binding,Human δ-opioid (DOP); human DOP membranes,− (“−” indicates less than 50% inhibition at 10 μM)
CSC1O[C@H](COCc2ccccc2)[C@@H](O)[C@@H](OCc2ccc(-c3ccccc3)cc2)[C@H]1NC(=O)CCNC(=N)N (stereo partly drawn) [compound 286],"A5: inhibition of radioligand binding, human melanocortin (MC5)",Human melanocortin (MC5),+ (“+” indicates greater than 50% inhibition at 10 μM)
same,"A7: inhibition of radioligand binding, human μ-opioid (MOP)",Human μ-opioid (MOP),− (“−” indicates less than 50% inhibition at 10 μM)
same,"A3: inhibition of radioligand binding, human melanocortin (MC3)",Human Melanocortin (MC3),− (“−” indicates less than 50% inhibition at 10 μM)
same,"A2: inhibition of radioligand binding, human κ-opioid (KOP)",Human κ-Opioid (KOP),− (“−” indicates less than 50% inhibition at 10 μM)
same,"A9: inhibition of radioligand binding, human neuropeptide Y (NPY-Y1)",[1],− (“−” indicates less than 50% inhibition at 10 μM)
same,"A11: inhibition of radioligand binding, mouse urotensin (mUR2)",Mouse urotensin (mUR2),− (“−” indicates less than 50% inhibition at 10 μM)
same,"A6: inhibition of radioligand binding, human melanin-concentrating hormone (MCH1)",[2]; [125I]-S36057,− (“−” indicates less than 50% inhibition at 10 μM)
same,"A4: inhibition of radioligand binding, human melanocortin (MC4)",Human Melanocortin (MC4),− (“−” indicates less than 50% inhibition at 10 μM)
same,"A8: inhibition of radioligand binding, human neurokinin (NK1)",Human neurokinin (NK1),+ (“+” indicates greater than 50% inhibition at 10 μM)
same,"A10: inhibition of radioligand binding, human opioid (ORL1)",Human opioid (ORL1),− (“−” indicates less than 50% inhibition at 10 μM)
same,"A1: inhibition of radioligand binding, human δ-opioid (DOP)",Human δ-opioid (DOP),− (“−” indicates less than 50% inhibition at 10 μM)
CSC1O[C@H](COCc2ccc3ccccc3c2)[C@@H](O)[C@@H](OCc2ccc(Cl)cc2)[C@H]1NC(=O)CNC(=N)N (stereo partly drawn) [compound 281],A5: inhibition of radioligand binding,Human melanocortin (MC5); FlashPlate,+ (“+” indicates greater than 50% inhibition at 10 μM)
same,A7: inhibition of radioligand binding,Human μ-opioid (MOP); FlashPlate,− (“−” indicates less than 50% inhibition at 10 μM)
same,A3: inhibition of radioligand binding,Human Melanocortin (MC3); FlashPlate,+ (“+” indicates greater than 50% inhibition at 10 μM)
same,A2: inhibition of radioligand binding,Human κ-Opioid (KOP); filtration,− (“−” indicates less than 50% inhibition at 10 μM)
same,A9: inhibition of radioligand binding,[1]; FlashPlate,− (“−” indicates less than 50% inhibition at 10 μM)
same,A11: inhibition of radioligand binding,Mouse urotensin (mUR2); FlashPlate,− (“−” indicates less than 50% inhibition at 10 μM)
same,A6: inhibition of radioligand binding,"[2]; [125I]-S36057, FlashPlate",− (“−” indicates less than 50% inhibition at 10 μM)
same,A4: inhibition of radioligand binding,Human Melanocortin (MC4); FlashPlate,+ (“+” indicates greater than 50% inhibition at 10 μM)
same,A8: inhibition of radioligand binding,Human neurokinin (NK1); filtration,+ (“+” indicates greater than 50% inhibition at 10 μM)
same,A10: inhibition of radioligand binding,Human opioid (ORL1); FlashPlate,− (“−” indicates less than 50% inhibition at 10 μM)
same,A1: inhibition of radioligand binding,Human δ-opioid (DOP); FlashPlate,− (“−” indicates less than 50% inhibition at 10 μM)
